# Assay results taken from patent US20100183563A1, “DENTINOGENESIS PROMOTER AND DENTINOGENIC PULP-CAPPING MATERIAL” (ORGAN TECHNOLOGIES, INC., priority 2007, published 2010).
# Columns and labels:
# Format in all cases: cell-based, human
# [1] = test system: dental pulp stem cells (DPSCs); experiment: Proliferation of dental pulp stem cells, cell number by the MTS method; conditions: for effect on proliferation of DPSCs compared with the control: 1 μM, Example 2, FIG. 5
# Procedure: Dental pulp stem cells (DPSCs) were isolated in accordance with a method of Gronthos et al. (Proc. Natl. Acad. Sci. USA, 97: 13625-30, 2000) from a human extracted tooth that was submitted with informed consent under the permission of Okayama University Dental School Ethics Committee.
# Specifically, pulp obtained from an extracted human tooth was enzyme-treated for 30 minutes at 37° C. with 3 mg/ml type 1 collagenase (Worthington Biochemicals Corp.) and 4 mg/ml dispase (Roche Diagnostic/Boehringer Mannheim Corp.), and then cultured using α-MEM culture medium containing 10% fetal bovine serum (FBS), L-ascorbic acid (0.1 mM), L-glutamine (2 mM), penicillin (100 μg/ml), and streptomycin (100 μg/ml).
# Specifically, the DPSCs prepared above (1) were cultured under 5% CO2 at 37° C. in α-MEM culture medium including 10% fetal bovine serum (FBS) containing SVS at a concentration of 1 μM, L-ascorbic acid (0.1 mM), L-glutamine (2 mM), penicillin (100 μg/ml), and streptomycin (100 μg/ml). The culture medium was exchanged twice a week, and the number of cells on […] was indirectly evaluated using the MTS method (Barltrop, J. A. et al. 5-(3-carboxymethoxyphenyl)-2-(4,5-dimenthylthiazoly)-3-(4-sulfophenyl)tetrazolium, inner salt (MTS) and related analogs of 3-(4,5-dimethylthiazolyl)-2,5-diphenyl-tetrazolium bromide (MTT) reducing to purple water-soluble formazans as cell-viability indicators. Bioorg. & Med. Chem. Lett. 1, 611, 1991).
# On day 0, day 3, and day 5 from the beginning of cultivation, the cell number of DPSCs was measured using the MTS method.
# On day 5 from the beginning of cultivation, the cell number of DPSCs was measured using the MTS method.
# Specifically, in Example 1, section (2), dental pulp stem cells (DPSCs) were cultured in the presence of each of the following: (a) simvastatin (1 μM) (simvastatin added group); (b) simvastatin (1 μM) and mevalonate (1 mM) (mevalonate added group); and (c) simvastatin (1 μM), mevalonate (1 mM) and Fasudil (10 μM) (Fasudil combined use group). On day 0, day 3, and day 5 from the beginning of cultivation, the cell number of DPSCs was measured using the MTS method.
# [2] = test system: osteocalcin (OCN) gene expression in dental pulp stem cells (DPSCs); experiment: Gene expression of OCN (marker of calcification) in DPSCs by RT-PCR; conditions: for gene expression of OCN compared with the control and the comparison (BMP-2): 1 μM, day 14, Example 2, FIG. 6
# Procedure: (§1) Specifically, the DPSCs prepared above (1) were cultured under a 5% CO2 gas phase at 37° C. in α-MEM culture medium including 10% fetal bovine serum (FBS) containing SVS at a concentration of 1 μM, L-ascorbic acid (0.1 mM), L-glutamine (2 mM), penicillin (100 μg/ml), and streptomycin (100 μg/ml). Total RNA was collected from cells obtained on day 3, day 7, and day 10 from the beginning of cultivation, and gene expression of dentin sialophosphoprotein (DSPP), i.e., an odontoblast-specific marker (Ritchie H H et al. J. Biol. Chem., 269:3698-702, 1994; Butler W T et al. Matrix., 12:343-51, 1992), and gene expression of osteocalcin (OCN), i.e., a marker of calcification (Bronckers A L et al. Connect Tissue Res., 22:65-70, 1989) were evaluated using qualitative RT-PCR (Narayanan K et al., J. Biol. Chem., 281(28):19064-71, 2006).
# Dental pulp stem cells (DPSCs) were cultured in a manner similar to Example 1, section (3), using simvastatin (1 μM), fluvastatin (1 μM), mevastatin (1 μM), lovastatin (1 μM), and plavastatin (200 μM) respectively as HGM-CoA reductase inhibitors. Gene expression of OCN, i.e., a marker of calcification was evaluated on day 14, using qualitative RT-PCR.
# [3] = test system: dentin sialophosphoprotein (DSPP) gene expression in dental pulp stem cells (DPSCs); experiment: Gene expression of DSPP (odontoblast-specific marker) in DPSCs by RT-PCR; conditions: SVS 1 μM, p=0.0111
# Procedure: as §1
molecule,measurement,setting,value
O=S(=O)(c1cccc2cnccc12)N1CCCNCC1 [Fasudil],effect on proliferation of DPSCs,"[1]; Fasudil at not less than 10 μM (tested 1, 10, 100 μM), day 5, FIG. 7",inhibited proliferation of DPSCs
same,"effect on cell proliferation of DPSCs, Fasudil combined use group","[1]; simvastatin 1 μM + mevalonate 1 mM + Fasudil 10 μM, day 5, FIG. 8",greater inhibition of cell proliferation of DPSCs than the comparison
CC(C)n1c(/C=C/C(O)CC(O)CC(=O)O)c(-c2ccc(F)cc2)c2ccccc21 (stereo not drawn) [fluvastatin],effect on proliferation of DPSCs compared with the control,[1]; day 5,inhibited proliferation of DPSCs with a significant difference
same,gene expression of OCN compared with the control and the comparison (BMP-2),[2],increase in gene expression of OCN
CC[C@H](C)C(=O)O[C@H]1C[C@@H](C)C=C2C=C[C@H](C)[C@H](CC[C@@H]3C[C@@H](O)CC(=O)O3)[C@H]21 [lovastatin],effect on proliferation of DPSCs compared with the control,[1]; day 5,inhibited proliferation of DPSCs with a significant difference
same,gene expression of OCN compared with the control and the comparison (BMP-2),[2],increase in gene expression of OCN
CC(O)(CCO)CC(=O)O (stereo not drawn) [mevalonate],effect of mevalonate supply on simvastatin-induced inhibition of DPSC proliferation,"[1]; simvastatin 1 μM + mevalonate 1 mM, day 5, FIG. 8",disappearance of the cell proliferation inhibiting effect
CC[C@H](C)C(=O)O[C@H]1CCC=C2C=C[C@H](C)[C@H](CC[C@@H]3C[C@@H](O)CC(=O)O3)[C@H]21 [mevastatin],effect on proliferation of DPSCs compared with the control,[1]; day 5,inhibited proliferation of DPSCs with a significant difference
same,gene expression of OCN compared with the control and the comparison (BMP-2),[2],increase in gene expression of OCN
O=C(O)C[C@H](O)C[C@H](O)/C=C/c1c(C2CC2)nc2ccccc2c1-c1ccc(F)cc1 [pitavastatin],effect on proliferation of DPSCs compared with the control,[1]; day 5,inhibited proliferation of DPSCs with a significant difference
CCC(C)(C)C(=O)O[C@H]1C[C@@H](C)C=C2C=C[C@H](C)[C@H](CC[C@@H]3C[C@@H](O)CC(=O)O3)[C@H]21 [simvastatin],proliferation of dental pulp stem cells (DPSCs),"[1]; SVS 1 μM, day 5 from the beginning of cultivation, vs control (PBS), significant decrease, p<0.0001",0.73 fold
same,increase in gene expression of DSPP,[3],10.9 fold
same,increase in gene expression of OCN compared with the BMP-2,"[2]; SVS 1 μM vs BMP-2 100 ng/ml, DPSCs, p=0.0002, Scheffe's multiple comparison test",7.4 fold
same,increase in gene expression of OCN compared with the control,"[2]; SVS 1 μM, DPSCs, p=0.0004, Scheffe's multiple comparison test",18.8 fold
"Noggin: a BMP inhibitor (R&D systems) (protein, UniProt Q13253 28-232, looked up) Noggin: QHYLHIRPAPSDNLPLVDLIEHPDPIFDPKEKDLNETLLRSLLGGHYDPGFMATSPPEDRPGGGGGAAGGAEDLAELDQLLRQRPSGAMPSEIKGLEFSEGLAQGKKQRLSKKLRRKLQMWLWSQTFCPVLYAWNDLGSRFWPRYVKVGSCFSKRSCSVPEGMVCKPSKSVHLTVLRWRCQRRGGQRCGWIPIQYPIISECKCSC",effect on cellular proliferation of DPSCs compared with the control,"[1]; day 5, Example 4, FIG. 9, statin = simvastatin 1 μM",an effect on cellular proliferation of DPSCs was not observed
